# According to patent US20110295343A1, “NEAR-INFRARED ELECTROMAGNETIC MODIFICATION OF CELLULAR STEADY-STATE MEMBRANE POTENTIALS” (priority 2008, published 2011):
# Several values for one entry are separate records, joined by “and”; a condition that tells them apart may be missing. Identical values can stand only once.
# Assays:
# MRSA in the nares = test: Nasal colonization human study Part One, quantitative swab cultures, MRSA; assay type: in vivo, S. aureus; settings: for MRSA Average: laser w/ drug arm, one line per patient; for reduction of bioburden: laser plus 2% erythromycin paste
# Method: (§1) This investigational protocol was an open-label study of subjects who are colonized with MRSA in the nares (nostril). The study was done in two parts.
# (§2) In this human study, three arms were produced. […] This was done on day 1 and again on day three; and Arm #3: ⅓ of the subjects were treated with the laser and then a topical antibiotic three times a day for five days. Prior to enrollment in this study, prospective subjects met all of the following criteria: age≧18 years and ≦70 years of age; previous positive MRSA culture; negative urine pregnancy test or post-menopausal for one year; willing to comply with study requirements, including return visits and self-application of topical antibiotics; and willing to provide informed consent to participate. Prospective subjects were excluded from this study if any of the following criteria were met: pregnancy; patients who are severely immunocompromised (such as may occur in AIDS, renal transplant regimens, immunosuppressed states consequent to malignancy or agents used in rendering oncologic care, or who suffer from end stage renal disease); diabetic patients; allergy to antimicrobials being used in the study (group 3).
# (§3) All participants underwent an initial quantitative assessment for nasal carriage of S. aureus, during their first visit. Each participant had the anterior nares (each nostril) sampled for culture with a circular movement (three rotations on each side) of a sterile wood applicator plain Rayon® tipped swab in each nostril and placed in a labled tube. 2 ml of room temp phosphate buffered saline was placed in the tube after the removal of the swab (to completely cover the swab in the tube). Each swab was then placed back in the tube and the tube was then vortexed for 15 seconds to disperse isolates of MRSA and/or MSSA into the PBS solution. Aliquots of PBS from the tube were plated in the following manner: 100 μl from each tube was lawn plated in triplicate (3×) on selective Chromogenic MRSA And MSSA agar. Plates were placed in incubator within 30 minutes of the plating procedure, and colonies were counted manually, and recorded 18 hrs after plating.
# (§4) On day one of the study, all subjects underwent this exact procedure in arms 1 and 2 of the study two minutes before the laser procedure. They again were sampled in the same manner 2 minutes after the laser procedure. In the third arm of the study, they were swabbed two minutes before the procedure and the first antibiotic administration was completed after the laser therapy. The post/laser swab sample was taken for this arm 20 min later.
# (§5) On day three of the study, all subjects from arms one two and three underwent the exact same procedures as day 1 of the study.
# (§6) On day five all subjects from all arms underwent just one swabbing per nostril with the exact same sampling procedure one time.
# (§7) Application of H202: 3% OTC hydrogen peroxide was applied to a cotton pledget for application to the subject prior to irradiation. This was inserted in the nose for 120 seconds and then removed. The subjects were then given doses of phototherapeutic near infrared radiation as described. Application of generic topical Antimicrobial: The subjects were first given doses of phototherapeutic near infrared radiation as described. […] The swab was inserted approximately 1 cm in to the anterior nares and rotated 360 degrees several times and removed. Patients were instructed to perform the exact application procedure 3 times a day for the remaining 5 days.
# (§8) The NOVEON™ laser was used for two (2) six-minute treatments in each nostril on day (1) and day (3) of the study.
# (§9) The laser was calibrated before the first treatment of the day. Intermittent temperature testing of the treatment site was performed on each subject using a noncontact infrared thermometer (Raytek Minitemp), 30-60 second intervals.
# MSSA in the nares [1] = test: Nasal colonization human study Part Two, laser plus topical erythromycin, MSSA; assay type: in vivo, S. aureus; settings: one patient, baseline count >1000 CFU's; day 5 culture
# Method: A second human study was conducted, to further evaluate the therapeutic potential of the NOVEON™ laser system, including its ability to reverse drug resistance in bacteria. The study was conducted in a similar manner as Part One, above. Outcome measures assessed included both laboratory study and clinical observations.
# Positive anterior nares cultures were obtained in six patients (12 nostrils) having nasal colonization of MRSA or MSSA, before initiating bacterial photodamage through doses of phototherapeutic near infrared radiation. One patient had MRSA only, 3 had MSSA only, and 2 had both MRSA and MSSA.
# The swab was inserted approximately 1 cm in to the anterior nares of the subject, rotated 360 degrees several times and removed.
# The laser was calibrated before the first treatment of the day and between each patient. The NOVEON™ laser was used for four six-minute treatments of the nares at the following sets of dosimetries (Tables 59), which were evaluated for safety in previous studies. […] Temperatures of the nares were recorded every 30 seconds with an IR temperature thermometer.
# Quantitative cultures from each nostril were obtained and plated in triplicate on chromogenic agar before and 20 minutes after exposure on day 1 and day 3. […]
# MRSA = test: CFU counts of MRSA plated on agar with antibiotic after sub-lethal NIMELS laser (Examples IX-XII); assay type: cell-based, Staphylococcus aureus; settings: for effect of sub-lethal NIMELS irradiation on antibiotic action against MRSA colonies (words): antibiotic at resistant MIC just below effectiveness level
# Source text: The following parameters illustrate the general bacterial methods according to the invention as applied to MRSA for the in vitro Experiments V and VIII-XII.
# The null hypothesis is μ1−μ2=0 and μ1−μ3=0 where:
# a) μ1 is sub-lethal dosimetry from the NIMEL laser system on MRSA as a control and;
# The null hypothesis is μ1−μ2=0 and μ1−μ3=0 where: • a) μ1 is sub-lethal dosimetry from the NIMEL laser system on MRSA as a control and; • b)μ2 is the same sub-lethal dosimetry from the NIMEL laser system on MRSA with the addition of tetracycline at resistant MIC just below effectiveness level and; • c) μ3 is the same sub-lethal dosimetry from the NIMEL laser system on MRSA with the addition of rifampin at resistant MIC just below effectiveness level.
# The null hypothesis is μ1−μ2=0 and μ1−μ3=0 where: a) μ1 is sub-lethal dosimetry from the NIMEL laser system on MRSA as a control and; b)μ2 is the same sub-lethal dosimetry from the NIMEL laser system on MRSA with the addition of methicillin at resistant MIC just below effectiveness level and; […]
# MSSA in the nares [2] = test: Nasal colonization human study Part One, quantitative swab cultures, MSSA; assay type: in vivo, S. aureus; settings: for s. aureus Average: laser w/ drug arm, one line per patient
# Method: as §1, §2, §3, §4, §5, §6, §7, §8, §9
# [3] = Initial Analysis, Post-treatment swab, left nostril
# [4] = Initial Analysis, Post-treatment swab, right nostril
# [5] = Initial Analysis, Pre swab (baseline), left nostril, mean of triplicate plates
# [6] = Initial Analysis, Pre swab (baseline), right nostril
# [7] = Second Analysis, Post-treatment swab, left nostril
# [8] = Second Analysis, Post-treatment swab, right nostril
# [9] = Second Analysis, Pre swab, left nostril
# [10] = Second Analysis, Pre swab, right nostril
# [11] = Third Analysis, Swab, left nostril
# [12] = Third Analysis, Swab, right nostril
# [13] = patient 01-005, 2% erythromycin paste three times a day for five days
structure (smiles),measurement,setting,value
CC[C@H]1OC(=O)[C@H](C)[C@@H](O[C@H]2C[C@@](C)(OC)[C@@H](O)[C@H](C)O2)[C@H](C)[C@@H](O[C@@H]2O[C@H](C)C[C@H](N(C)C)[C@H]2O)[C@](C)(O)C[C@@H](C)C(=O)[C@H](C)[C@@H](O)[C@]1(C)O [Erythromycin],MRSA Average,MRSA in the nares; [3],0 CFU (2×) and 166 CFU
same,MRSA Average,MRSA in the nares; [4],0 CFU (2×) and 1 CFU
same,MRSA Average,MRSA in the nares; [5],0 CFU (2×) and 3072 CFU
same,MRSA Average,MRSA in the nares; [6],0 CFU (2×) and 8 CFU
same,MRSA Average,MRSA in the nares; [7],0 CFU
same,MRSA Average,MRSA in the nares; [8],0 CFU
same,MRSA Average,MRSA in the nares; [9],0 CFU (2×) and 76 CFU
same,MRSA Average,MRSA in the nares; [10],0 CFU
same,MRSA Average,MRSA in the nares; [11],0 CFU
same,MRSA Average,MRSA in the nares; [12],0 CFU
same,reduction of bioburden,"MRSA in the nares; patient 01-005, heavily colonized nostril",≥ 3 log
same,reduction of bioburden,"MRSA in the nares; patient 01-005, moderately colonized nostril",≥ 2 log
same,"outcome on MRSA colonization, laser plus topical erythromycin",MRSA in the nares; [13],eradication in both nostrils
same,reduction in MSSA,MSSA in the nares [1],3 log
same,effect of sub-lethal NIMELS irradiation on antibiotic action against MRSA colonies (words),MRSA,successful reversal of MRSA resistance
same,effect of sub-lethal NIMELS irradiation on antibiotic action against MRSA colonies (words),MRSA; listed as erythromycin,resistance to erythromycin being reversed
same,"MRSA colony count, CONTROL (no laser)","MRSA; no laser, agar with erythro 4 ug/ml, replicates B-4 1 to 5",196 and 168 and 175 and 177 and 195
same,"MRSA colony count, EXPERIMENTAL","MRSA; sub-lethal NIMELS laser, agar with erythro 4 ug/ml, replicates B-4 1 to 5",27 and 39 (2×) and 35 and 28
same,s. aureus Average,MSSA in the nares [2]; [3],0 CFU (2×) and 188 CFU
same,s. aureus Average,MSSA in the nares [2]; [4],0 CFU
same,s. aureus Average,MSSA in the nares [2]; [5],0 CFU (2×) and 3045 CFU
same,s. aureus Average,MSSA in the nares [2]; [6],0 CFU (2×) and 16 CFU
same,s. aureus Average,MSSA in the nares [2]; [7],0 CFU
same,s. aureus Average,MSSA in the nares [2]; [8],0 CFU
same,s. aureus Average,MSSA in the nares [2]; [9],0 CFU (2×) and 71 CFU
same,s. aureus Average,MSSA in the nares [2]; [10],0 CFU
same,s. aureus Average,MSSA in the nares [2]; [11],0 CFU
same,s. aureus Average,MSSA in the nares [2]; [12],0 CFU
same,"outcome on MSSA colonization, laser plus topical erythromycin",MSSA in the nares [2]; [13],eradication in both nostrils
